Assay results: patent US6884418B1, “Use of ligand-mimicking agents and anti-neoplastic drugs in cancer therapy” (Berlex Laboratories, Inc., priority 1989, dated 2005)

Legend:
[1] = tested on: SKBR3 cells; test: MTT assay, SKBR3 cells; assay type: cell-based, human
Protocol: The MTT assay is generally used to assess cellular viability as a function of mitochondrial activity. The assay was used to examine effects of cisplatin with and without the c-erbB-2 monoclonal antibodies and was carried out as follows:
MTT was added for 4 hours and the crystals dissolved with isopropanol/0.04N HCI/0.3% SDS.

[2] = tested on: SKBR3 cells; test: Soft agar clonogenic assay, SKBR3; assay type: cell-based, human; conditions: 10 ng/ml cisplatin alone
Protocol: The effects of TAb 250 alone and in combination with cisplatin (CDDP) on growth of human tumor cells in soft agar was assessed. SKOV3 (6,000 cells per ml) or SKBR3 (12,000 cells per ml) were incubated in assay medium (DMEM:F12, University of California at San Francisco Cell Culture Facility), 10% dialyzed FBS 0.1 mM nonessential amino acids in solution obtained from Gibco, 1 mM sodium pyruvate and 10 mM HEPES) for 30 minutes at 37° C. with 1 or 10 μg/ml TAb 250. CDDP at concentrations of either 10 ng/ml for SKBR3 cells and 100 ng/ml for SKOV3 cells was then added and the incubation continued for 1.5 hours at 37° C. An equal volume of assay medium containing 0.8% Sea Plaque agarose and appropriate concentrations of TAb 250 and CDDP were combined with the cell mixture. Triplicate 1 ml aliquots were dispensed onto base layers of 0.8% agarose in assay medium containing the appropriate amounts of TAb 250, CDDP or both, in 35 mm dishes. After 14 days at 37° C./5% CO2 in a humidified chamber, viable colonies were stained for 24 hours with Nitro Blue tetrazolium dye (Sigma, 500 μg in 1 ml PBS). Stained colonies greater than 60 μ were scored positive using a FAS III Image Analysis System (Bausch and Lomb, Rochester, N.Y.). The data are expressed as a percentage of untreated control colonies formed. In control dishes, SKOV3 and SKBR3 cells formed 859+/−16 and 1107+/−72 colonies, respectively. […]

For N.N.O=C([O-])C1(C(=O)[O-])CCC1.[Pt+2] [carboplatin, cis-diammine-1,1-cyclobutane dicarboxylate platinum], the cell proliferation ([1]; 16 μg of carboplatin alone) was 63 % of control and the “synergistic response of the drug combined with TAb 250” value ([1]; MTT assay, carboplatin 16 μg, melphalan 20 μg) was “synergistic effects”.
In the case of N.N.[Cl][Pt][Cl] [cisplatin, cis-diamminedichloroplatinum], the “colony formation in soft agar” value [2] was “did not inhibit colony formation”, the cell growth ([1]; 1.0 μg of cisplatin alone) was 65 % of control and the “toxicity to the cells” value ([1]; 3.0 μg of cisplatin alone) was “highly toxic”.
In the case of N[C@@H](Cc1ccc(N(CCCl)CCCl)cc1)C(=O)O [melphalan, 4-[bis(2-chloroethyl)amino] L-phenylalanine], the proliferation ([1]; 20 μg of melphalan alone) was 70 % of control.
